Assays:
[1] = target: T1, Bifunctional epoxide hydrolase 2 (Homo sapiens, UniProt P34913); experiment: Inhibition of human recombinant soluble epoxide hydrolase using (3-phenyl-oxiranyl)-acetic acid cyano-(6-methoxy-naphtalen-2-yl)-methyl ester as substrate incubated for 15 mins prior to substrate addition by fluorescence assay
T1 sequence (P34913 whole entry): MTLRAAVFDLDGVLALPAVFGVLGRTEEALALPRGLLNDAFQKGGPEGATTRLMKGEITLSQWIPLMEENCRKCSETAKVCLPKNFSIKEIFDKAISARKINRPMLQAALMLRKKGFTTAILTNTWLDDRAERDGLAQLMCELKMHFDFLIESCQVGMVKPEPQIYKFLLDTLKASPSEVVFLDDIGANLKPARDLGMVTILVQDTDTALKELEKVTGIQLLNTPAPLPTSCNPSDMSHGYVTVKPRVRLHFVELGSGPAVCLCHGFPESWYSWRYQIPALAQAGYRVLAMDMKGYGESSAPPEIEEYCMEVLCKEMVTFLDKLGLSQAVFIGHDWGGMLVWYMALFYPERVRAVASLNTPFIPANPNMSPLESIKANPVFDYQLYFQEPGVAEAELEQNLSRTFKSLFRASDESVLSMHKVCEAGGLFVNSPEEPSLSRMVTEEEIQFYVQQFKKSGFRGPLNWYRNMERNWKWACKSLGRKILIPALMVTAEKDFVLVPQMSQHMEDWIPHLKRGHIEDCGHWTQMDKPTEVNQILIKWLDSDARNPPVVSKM

[2] = target: T2, Bifunctional epoxide hydrolase 2 (Homo sapiens) (UniProt P34913); experiment: Inhibition of human recombinant soluble epoxide hydrolase using (3-phenyl-oxiranyl)-acetic acid cyano-(6-methoxy-naphtalen-2-yl)-methyl ester as substrate at 100 uM incubated for 15 mins prior to substrate addition by fluorescence assay
T2 sequence (whole entry): T1 sequence (P34913 whole entry)

Row | Structure (SMILES) | IC50 [1] | inhibition [2]
1 | Cc1cc(C2CCN(C(=O)Nc3ccccc3)CC2)n(-c2ccc(S(N)(=O)=O)cc2)n1 | 16.7 µM | 92.7%
2 | Cc1ccc(C(=O)N2CCC(c3cc(C)nn3-c3ccc(S(N)(=O)=O)cc3)CC2)cc1 |  | 0%
3 | Cc1cc(C2CCN(C(=O)Nc3ccccc3)CC2)n(-c2ccc(S(C)(=O)=O)cc2)n1 | 0.22 µM | 89.9%
4 | Cc1cc(C2CCN(C(=O)Nc3ccccc3Cl)CC2)n(-c2ccc(S(C)(=O)=O)cc2)n1 |  | 54%
5 | COc1ccc(C(=O)N2CCC(c3cc(C)nn3-c3ccc(S(C)(=O)=O)cc3)CC2)cc1 |  | 15.2%
6 | Cc1ccc(NC(=O)N2CCC(c3cc(C)nn3-c3ccc(S(C)(=O)=O)cc3)CC2)cc1 |  | 54%
7 | Cc1ccc(NC(=O)N2CCC(c3cc(C)nn3-c3ccc(S(N)(=O)=O)cc3)CC2)cc1 | 0.224 µM | 105%
8 | Cc1cc(C2CCN(C(=O)NC3CCCCC3)CC2)n(-c2ccc(S(N)(=O)=O)cc2)n1 | 0.275 µM | 99%
9 | CCCNC(=O)N1CCC(c2cc(C)nn2-c2ccc(S(C)(=O)=O)cc2)CC1 |  | 54%
10 | CCNC(=O)N1CCC(c2cc(C)nn2-c2ccc(S(N)(=O)=O)cc2)CC1 |  | 23.3%
11 | COc1ccc(C(=O)N2CCC(c3cc(C)nn3-c3ccc(S(N)(=O)=O)cc3)CC2)cc1 |  | 32.9%
12 | CCc1ccccc1NC(=O)N1CCC(c2cc(C)nn2-c2ccc(S(C)(=O)=O)cc2)CC1 |  | 54%
13 | CCCC(=O)N1CCC(c2cc(C)nn2-c2ccc(S(C)(=O)=O)cc2)CC1 |  | 54%
14 | Cc1cc(C2CCN(C(=O)c3ccccc3)CC2)n(-c2ccc(S(C)(=O)=O)cc2)n1 |  | 54%
15 | Cc1cc(C2CCN(C(=O)NC(C)C)CC2)n(-c2ccc(S(N)(=O)=O)cc2)n1 | 22.3 µM | 105%
16 | Cc1cc(C2CCN(C(=O)NC(C)C)CC2)n(-c2ccc(S(C)(=O)=O)cc2)n1 | 13.6 µM | 45.4%
17 | Cc1cc(C2CCN(C(=O)c3ccc([N+](=O)[O-])cc3)CC2)n(-c2ccc(S(C)(=O)=O)cc2)n1 |  | 54%

Row | Structure (SMILES) | IC50 [1] | inhibition [2]
18 | CCCNC(=O)N1CCC(c2cc(C)nn2-c2ccc(S(N)(=O)=O)cc2)CC1 |  | 68.6%
19 | Cc1cc(C2CCN(C(=O)c3ccc(Cl)cc3)CC2)n(-c2ccc(S(N)(=O)=O)cc2)n1 |  | 32.5%
20 | Cc1cc(C2CCN(C(=O)NCCc3ccccc3)CC2)n(-c2ccc(S(C)(=O)=O)cc2)n1 |  | 54%
21 | Cc1cc(C2CCN(C(=O)Nc3ccc(Cl)cc3)CC2)n(-c2ccc(S(C)(=O)=O)cc2)n1 |  | 54%
22 | CCCCNC(=O)N1CCC(c2cc(C)nn2-c2ccc(S(N)(=O)=O)cc2)CC1 | 10.1 µM | 82%
23 | Cc1cc(C2CCN(C(=O)NCc3ccccc3)CC2)n(-c2ccc(S(N)(=O)=O)cc2)n1 |  | 69.2%
24 | Cc1cc(C2CCN(C(=O)c3ccc([N+](=O)[O-])cc3)CC2)n(-c2ccc(S(N)(=O)=O)cc2)n1 |  | 0%
25 | CCNC(=O)N1CCC(c2cc(C)nn2-c2ccc(S(C)(=O)=O)cc2)CC1 |  | 54%
26 | CCCC(=O)N1CCC(c2cc(C)nn2-c2ccc(S(N)(=O)=O)cc2)CC1 |  | 68.7%
27 | CCCCNC(=O)N1CCC(c2cc(C)nn2-c2ccc(S(C)(=O)=O)cc2)CC1 | 0.269 µM | 99.5%
28 | Cc1cc(C2CCN(C(=O)Nc3ccccc3Cl)CC2)n(-c2ccc(S(N)(=O)=O)cc2)n1 |  | 54%
29 | Cc1ccc(C(=O)N2CCC(c3cc(C)nn3-c3ccc(S(C)(=O)=O)cc3)CC2)cc1 |  | 42.1%
30 | Cc1cc(C2CCN(C(=O)NCc3ccccc3)CC2)n(-c2ccc(S(C)(=O)=O)cc2)n1 |  | 94.2%
31 | Cc1cc(C2CCN(C(=O)c3ccc(Cl)cc3)CC2)n(-c2ccc(S(C)(=O)=O)cc2)n1 |  | 54%
32 | Cc1cc(C2CCN(C(=O)NC3CCCCC3)CC2)n(-c2ccc(S(C)(=O)=O)cc2)n1 | 3.47 µM | 114%
33 | Cc1cc(C2CCN(C(=O)c3ccccc3)CC2)n(-c2ccc(S(N)(=O)=O)cc2)n1 |  | 57.2%
